Source: patent US20130052173A1, “USE OF MENADIONE AND DERIVATIVES THEREOF FOR TREATING BIOMASSES” (priority 2010, published 2013)

How the values were obtained:
Format in all cases: cell-based
Lactobacillus plantarum = assay: Pasteurized 20% molasses solution inoculated with Lactobacillus plantarum; conditions: 48 hours at 25° C., MSB 50 ppm, MSB-C 100 ppm; for Lactic acid / Ufc/l (bacterial load): virginiamycin 2 mg/l
Procedure: A 20% solution of molasses is pasteurized at 65° C. for 30 minutes. After cooling, five 50-ml parts are formed: of these, one is kept as a control and the remaining four each receive the addition of 1 ml of inoculum (Lp) of Lactobacillus plantarum (1×10^5 ufc/ml). The third part then receives the addition of 2 mg/l of virginiamycin, the fourth part receives the addition of 50 ppm of menadione sodium bisulfite, while the fifth part receives the addition of 100 ppm of a mixture of menadione sodium bisulfite and sodium bisulfite known as MSB-C (composition of mixture: 65% MSB and 35% sodium bisulfite).

Lactobacillus fermentum = assay: Bioethanol fermentation of 33% corn flour dispersion with Saccharomyces cerevisiae contaminated with Lactobacillus fermentum; conditions: for Ethanol / Glucose (residual, non-fermented) / Lactic acid: 72 hours at 32° C., Sc + Lf inoculum, Virg 2 ppm, MSB 20 ppm
Procedure: The capacity of menadione sodium bisulfite to contrast the negative effect of bacterial contamination on the production of bioethanol is tested by using a 33% aqueous dispersion of corn flour, which is a typical substrate used in the bioethanol industry.
Using this dispersion, four parts of 40 ml each are prepared and are placed in four separate flasks (procedure described by Bischoff K. M. et al. in Biotechnology and Bioengineering 2009, 103, 117-122).
Flask 1 (witness) receives the addition of 0.5 ml of inoculum (Sc) of Saccharomyces cerevisiae (1×10^7 ufc/ml). Flask 2 receives the addition of 0.5 ml of inoculum (Sc) of Saccharomyces and 0.5 ml of inoculum (Lf) of Lactobacillus fermentum (1×10^8 ufc/ml); flask 3 receives the addition of 0.5 ml of inoculum (Sc) of Saccharomyces, 0.5 ml of inoculum (Lf) of Lactobacillus fermentum and 0.5 ml of a solution of virginiamycin with such a titer as to have, in the flask, a concentration of antibiotic equal to 2 mg/l. Flask 4 receives the addition of 0.5 ml of inoculum (Sc) of Saccharomyces, 0.5 ml of inoculum (Lf) of Lactobacillus fermentum and 0.5 ml of a solution of menadione sodium bisulfite (1600 mg/l ) with such a titer as to have in the flask a concentration of MSB equal to 20 ppm by weight.
Then the four flasks are kept under bland agitation and at the temperature of 32° C. for 72 hours. At the end of the incubation period, the four parts are analyzed for their content of ethanol, glucose and lactic acid.

Oenococcus oeni = assay: Pasteurized 30% glycerol solution inoculated with Oenococcus oeni; conditions: 48 hours at 25° C.; Penicillin 10 mg/l, emulsion A 20 mg/l, emulsion B 150 mg/l
Procedure: A 30% solution of glycerol is pasteurized at 65° C. for 30 minutes. After cooling, four 50-ml parts are formed, each of which receives the addition of 1 ml of inoculum (00) of Oenococcus oeni, so as to have a bacterial load of 1×10^5 ufc/l.
The first part is kept as a control; the second part receives the addition of 10 mg/l of Penicillin (Pen); the third part receives the addition of 20 mg/l of an emulsion A of menadione (composition: 50% menadione, 50% ethanol); the fourth part receives the addition of 150 mg/l of an emulsion B of menadione (composition: menadione 10%, ricinoleate 90%).

Saccharomyces cerevisiae = assay: Growth of Saccharomyces cerevisiae strains in liquid biomass containing menadione
[1] = system: broad spectrum of microorganisms, including yeasts; assay: Biocidal activity in a liquid biomass; conditions: weight of menadione/total weight of the biomass and of the compound

| Compound | Lactic acid (Lactobacillus plantarum) [g/L] | Ufc/l (bacterial load) (Lactobacillus plantarum) | Ethanol (Lactobacillus fermentum) [g/L] | Glucose (residual, non-fermented) (Lactobacillus fermentum) [g/L] | Lactic acid (Lactobacillus fermentum) [g/L] | Effect on the bacterial inoculum (Lactobacillus plantarum) | Effect on the bacterial inoculum (Lactobacillus fermentum; flask 4, MSB 20 ppm) | Effect on growth of the yeast (Lactobacillus fermentum; flask 4, MSB 20 ppm, Saccharomyces cerevisiae) | Ufc/l (bacterial load) (Oenococcus oeni) | Menadione concentration that allows growth of all the tested strains (Saccharomyces cerevisiae; liquid biomass) | Growth response of Saccharomyces cerevisiae (Saccharomyces cerevisiae; menadione concentration between 400 and 500 ppm) | Concentration from which biocidal activity is exhibited [1] |
| --- | --- | --- | --- | --- | --- | --- | --- | --- | --- | --- | --- | --- |
| virginiamycin [reference compound] | 0.15 | <1 × 10^2 Ufc/l | 108.2 | 6.4 | 0.4 | – | – | – | – | – | – | – |
| CC1(S(=O)(=O)[O-])CC(=O)c2ccccc2C1=O.[Na+] (centres unmarked) [MSB, menadione sodium bisulfite] | 0.40 | <1 × 10^3 Ufc/l | 111.3 | 6.2 | 0.5 | inhibiting completely the bacterial inoculum | able to inhibit the bacterial inoculum | has not harmed the growth of the yeast | – | – | – | – |
| Penicillin | – | – | – | – | – | – | – | – | <1 × 10^2 Ufc/l | – | – | – |
| CC1=CC(=O)c2ccccc2C1=O [menadione, 2-methylnaphthalene-1,4-dione] | – | – | – | – | – | – | – | – | – | below 400 ppm | varies depending on the tested strains | at least 500 ppm |
